Experimental data as given in patent US10632124B2, “Adrenoceptors antagonists for the prevention and treatment of neurodegenerative conditions” (Cedars-Sinai Medical Center, priority 2013, dated 2020).

Columns and labels:
[1] = test system: patients with a diagnosis of iPD; experiment: Retrospective cross-sectional medical record analysis of 333 iPD patients: constipation; type: in vivo, human; conditions: for Constipation, % of patients / No Constipation, % of patients: by dopaminergic treatment
Excerpt: The inventors conducted a retrospective, cross-sectional medical record analysis of 333 consecutive patients with a diagnosis of iPD seen in the Movement Disorders clinic of Cedars-Sinai Medical Center from October 2010 to March 2014. Demographic and clinical data, including vitals, motor and non-motor symptoms, dopaminergic medications, comorbidities and anti-hypertensive medications were collected at the initial consultation visit. All data were collected in an Excel database and analyzed by SPSS version 19.0 (SPSS, Inc., Chicago, Ill.). Continuous variables were expressed as mean±standard deviation and compared by the use of Student t test (normally distributed) or as median±interquartile range value and compared by the use of Mann-Whitney U test (not normally distributed), as appropriate. Normality of data distribution was evaluated using the Kolmogorov-Smirnov test. Categorical variables were expressed as proportion and compared by use of χ^2 test with risk ratios and 95% confidence intervals quoted. To determine the independent predictors of constipation, logistic regression analysis was performed. Variables achieving p<0.1 on univariate analysis were then included in a multivariate analysis. Statistical significance was accepted at p<0.05. […] Constipation was strongly associated with dopaminergic treatment. On the other hand, only 28/63 (44.4%) patients treated with beta-blockers reported constipation (Table 2).

[2] = test system: Parkinson's disease patient; experiment: Case report of one Parkinson's disease patient; type: in vivo, human
Description: Low-dose beta-blocker therapy (carvedilol 6.25 mg BID) was started to treat anxiety avoiding the sedative effect of benzodiazepine.

[3] = test system: rectum, mid colon and distal colon; conditions: wild type rats, cited from earlier work
[4] = in vivo; cited from earlier work
[5] = current (oral) formulations; cited from earlier work
Parkinson's disease = conditions: in vivo; cited from earlier work

Structure (SMILES): NC12CC3CC(CC(C3)C1)C2 [Amantadine]
- OR of constipation, univariate logistic regression [1]: 1.528

Structure (SMILES): N[C@@H](Cc1ccc(O)c(O)c1)C(=O)O [Levodopa, levodopa]
- motor symptoms ([2]; Sinemet 25/100 TID added to pramipexole): almost complete resolution of motor symptoms
- Constipation, % of patients ([1]; Betablockers): 60.0%
- No Constipation, % of patients ([1]; Betablockers): 40.0%
- Constipation, % of patients ([1]; No Betablockers): 71.7%
- No Constipation, % of patients ([1]; No Betablockers): 28.3%
- OR of constipation, multivariate logistic regression ([1]; multivariate incl. age, gender, PD duration, levodopa, dopamine-agonists, beta-blockers): 2.077
- OR of constipation, univariate logistic regression [1]: 2.659

Structure (SMILES): CN1[C@@H]2CC[C@H]1C[C@@H](OC(=O)C(CO)c1ccccc1)C2 (some centres unmarked) [atropine]
- contractions induced by vagus nerve and pelvic nerve stimulation [3]: abolished

Structure (SMILES): CC(C)NCC(O)COc1ccc(CCOCC2CC2)cc1 (centres unmarked) [betaxolol]
- passage of the blood-brain barrier [4]: pass the blood-brain barrier

Structure (SMILES): CC(C)NCC(O)COc1ccc(COCCOC(C)C)cc1 (centres unmarked) [bisopropolol]
- passage of the blood-brain barrier [4]: pass the blood-brain barrier

Structure (SMILES): Cc1cc2c(OCC(CNC(C)(C)C)OC(=O)c3ccccc3)cccc2[nH]1 (centres unmarked) [bopindolol]
- passage of the blood-brain barrier [4]: pass the blood-brain barrier

Structure (SMILES): COc1ccccc1OCCNCC(O)COc1cccc2[nH]c3ccccc3c12 (centres unmarked) [carvedilol]
- anxiety, constipation and sleep ([2]; 6.25 mg BID): improved dramatically
- GI symptoms (abdominal bloating and constipation) ([2]; restarted at the same dose after self-discontinuation): virtually immediate resolution
- absorption [5]: rapid and complete
- average elimination half-life [5]: about 8 hours
- passage of the blood-brain barrier [4]: pass the blood-brain barrier

Structure (SMILES): CCC1(c2c[nH]cn2)Cc2ccc(F)cc2C1 (centres unmarked) [fipemazole]
- levodopa-induced dyskinesias (Parkinson's disease): could also be diminished

Structure (SMILES): c1ccc2c(c1)OCC(C1=NCCN1)O2 (centres unmarked) [idaxozan]
- levodopa-induced dyskinesias (Parkinson's disease): could also be diminished

Structure (SMILES): CC(C)(C)NCC(O)COc1cccc2c1CC(O)C(O)C2 (centres unmarked) [nadolol]
- resting, postural, and action tremor in Parkinson's disease (Parkinson's disease): can be diminished

Structure (SMILES): C=CCOc1ccccc1OCC(O)CNC(C)C (centres unmarked) [oxprenolol]
- passage of the blood-brain barrier [4]: pass the blood-brain barrier

Structure (SMILES): CCCN[C@H]1CCc2nc(N)sc2C1 [pramipexole]
- tolerability ([2]; doses up to 1.5 mg TID): tolerated well

Structure (SMILES): CC(C)NCC(O)COc1cccc2ccccc12 (centres unmarked) [propranolol]
- levodopa-induced dyskinesias (Parkinson's disease): could reduce levodopa-induced dyskinesias without worsening Parkinsonism
- relaxations induced by hypogastric nerve stimulation ([3]; rectum, mid colon, distal colon): abolished
- passage of the blood-brain barrier [4]: pass the blood-brain barrier

Structure (SMILES): CC(C)(C)NC[C@H](O)COc1nsnc1N1CCOCC1 [timolol]
- passage of the blood-brain barrier [4]: pass the blood-brain barrier
